How the values were obtained:
[1] = test system: K14-Cre+/−; Ercc1−/fl; Skh1−/− mice; assay: Naked mouse skin photoaging study, topical treatment; type: in vivo
Method: Naked mice of strain K14-Cre^+/−; Ercc1^−/fl; Skh1^−/− were treated with SR12343 versus vehicle control, then exposed to UV light for […]. The NBD mimetic SR12343 and SR2460 were tested for their ability to reduce the effects of photoaging in a mouse model. To make analysis of skin aging easier, usually hairless mice are utilized. Previously studies have shown that exposure of the hairless Skh1^−/− mouse to UV results in skin aging over 5 months as measured by skin thickness, elastosis, collagen damage, synthesis and degradation, increased ratio of collagen III to I, increased GAGs, and wrinkles and sagging. To accelerate this photoaging process, we generated a mouse model where Ercc1-dependent DNA repair activity is eliminated in K14 expressing skin cells in the Skh1^−/− mice (K14-Cre^+/−; Ercc1^−/fl; Skh1^−/− mice). In these mice, chronic UV exposure gives rise to evidence of photoaging 6 times faster than in the Skh1^−/− mice, allowing for analysis of skin aging in 2-4 weeks (FIGS. 51 (A, B, and C).
For testing of drugs for effects on photoargng in the K14-Cre^+/−; Ercc1^−/fl; Skh1^−/− mice, the mice are first tattooed to outlined quadrants for drug treatment. The mice were then exposed to UV 3× (total of 1 kJ/m^2/wk) for 4 weeks in a tanning booth. This dose regiment is the equivalent of one year of sun exposure.
A 50 mg/ml solution of SR12343 was then prepared in a DMSO gel for topical application. The SR12343 gel was administered topically 5 times per week and mice exposed to UV 3× per week as indicated. It is important to note that the compound was administered following UV dosing to eliminate any anti-UV effects of the drug. At the midway point and at the end of the experiment, the mice were analyzed using a TEWL Meter for skin thickness, elasticity and hydration. At the time of sacrifice, skin sections are taken for analysis of the extent of cellular senescence by RT-PCR.

NF-κB [2] = assay: Firefly luciferase NF-κB reporter assay in TNF-α-stimulated HEK293 cells; type: cell-based; settings: for inhibition of TNF-α-induced NF-κB activation (luciferase reporter), in words: 293 NF-κB luciferase reporter cells, 10 ng/ml TNF-α, compound 12909780 at 100 μM
Method: This model was used to screen a subset of the drug-like ZINC 8.0 database set (˜900,000 compounds) (Irwin et al., 2005). We were able to identify 161 hits that matched at least 6 features out of eight of the pharmacophore model. […] Two compounds termed NBDA-1 (Zinc-13) and NBDA-2 (Zinc-5), successfully passed these filters (See FIG. 4) and were purchased for biological testing. The compounds were then tested for ability to inhibit TNF-alpha-mediated induction of NF-κB activity in a 293 cells stably modified with a NF-κB luciferase reporter.
The activation of NF-κB was then quantitated by measuring the level of luciferase activity. […] Also, protein extracts were prepared from the same cells and the level of phospho-IkB determined, a marker of IKK activity.
To test if the small molecules identified by the in silico screen inhibit NF-κB activation, a HEK293 cell line stably expressing a luciferase reporter driven by a synthetic, NF-κB-dependent promoter was utilized. To induce NF-κB activation, cells were treated with 10 ng/ml of TNF-α and harvested three hours post-treatment for analysis of luciferase activity. […] To determine if compound 12909780 inhibited NF-κB in a dose dependent manner, concentrations were tested at 0, 6.25, 25, 50 and 100 μM.
HEK293 cells stably transfected with luciferase reporter plasmid driven by NF-κB were seeded in 96-well plate in triplicate and pretreated with DMSO or varying small molecules at indicated concentration for 30 min, followed by the stimulation of 10 ng/ml of TNFα for 3 hr. Cell were washed with PBS once and harvested in passive lysis buffer. Luciferase assay (Promega) was performed using a luminometer according to the manufacturer's instructions.

p-IκBα = assay: Western blot of IκBα phosphorylation after TNF-α; type: cell-based; settings: 10 ng/ml TNF-α, 0, 5 and 10 min, 100 μM compound
Method: (§1) To confirm that the NBD mimetics reduce IKK activity, the extent of phosphorylation of the IKK target, IκBα, in response to 10 ng/ml of TNF-α was determined by Western blot at 0, 5 and 10 min after TNF-α stimulation. […] To determine if the mimetics also reduce NF-κB DNA binding activity, electrophoretic mobility shift assay (EMSA) was conducted both in vivo and in vitro.
HEK293 cells grown in a 6-well plate at 1×10^6 cells/well were left untreated or treated with 100 μM of ZINC12909780 or ZINC3369392 for 30 min, followed by 10 ng/ml of TNFα for 0, 5 and 10 min. Cells were then harvested for western blot. Cell lysate was prepared in RIPA buffer (20 mM Tris-HCl (pH 7.5), 150 mM NaCl, 1 mM Na^2EDTA, 1 mM EGTA, 1% NP-40, 1% sodium deoxycholate, 2.5 mM sodium pyrophosphate, 1 mM beta-glycerophosphate, 1 mM Na3VO4, 1 μg/ml leupeptin, 1× protease inhibitor cocktails (sigma) and 1× Halt phosphatase inhibitor cocktail (Thermo)). 30 ug of protein was resolved by MINI-PROTEAN TGX 4-15% SDS-PAGE. Blots were blocked in 5% non-fat milk. Primary antibodies were incubated at 4° C. overnight and secondary antibodies were incubated at room temperature for 1 hour. Anti-p-IκBα (1:1000 CST) and anti-IκBα (1:2000 CST) were used to assess NF-κB activation. Anti-GAPDH (1:5000 CST) was used as a loading control.

NF-κB [3] = assay: EMSA of NF-κB DNA binding in skeletal muscle of mdx mice after acute treatment; type: in vivo, mouse; settings: single ip injection at 10 mg/kg, 1 and 2 hours post-treatment
Method: We also tested the compounds for their ability to inhibit NF-κB activity acutely in a murine model of disease. For these experiments, a mouse model of Duchenne muscular dystrophy, which has elevated NF-κB activity in muscle, was treated with Zinc-13 (NBDA-1) and Zinc-5 (NBDA-2) and the level of NF-κB activity determined by gel shift analysis at 1 and 2 hours post-treatment.
as §1
Cytoplasmic and nuclear fractions were extracted using the NE-PER nuclear and cytoplasmic extraction reagents (ThermoFisher) according to the manufacturer's instructions. The gel shift assay was performed by following the previously described method (41). In brief, 5 μg of nuclear extract was incubated with gel shift binding buffer and an α-^32P-deoxycytodine triphosphate-radiolabeled NF-κB probe for 20 min at room temperature (MP Biomedicals). The oligonucleotide sequences are as follows: NF-κB template, 5′-[…]-3′; NF-κB annealing, 5′-[…]-3′. The reaction product was separated on a 6% non-denaturing polyacrylamide gel.

[4] = Degradation in the presence of serum; type: in vitro ADME; settings: data not shown

SMILES	overall appearance of the skin, wrinkles ([1]; 50 mg/ml in DMSO gel, topical 5 times per week, UV 3× per week)	skin elasticity ([1]; topical gel, UV-exposed)	skin hydration ([1]; topical gel, UV-exposed)	expression of senescent marker p16 in skin ([1]; topical gel, UV-exposed, RT-PCR)	molecular markers of skin aging and appearance of the skin ([1]; topical treatment)	dose-dependent inhibition of TNF-α-induced NF-κB activation, in words (NF-κB [2]; 0, 6.25, 25, 50 and 100 μM)	inhibition of TNF-α-induced NF-κB activation (luciferase reporter), in words (NF-κB [2])	inhibition of TNF-α-induced NF-κB activation (luciferase reporter), in words (NF-κB [2]; listed as Zinc-13)	level of phospho-IκBα / phosphorylation of IkB (p-IκBα)	level of phospho-IκBα / phosphorylation of IkB (p-IκBα; listed as Zinc-13)	level of phospho-IκBα / phosphorylation of IkB (p-IκBα; listed as compound 12909780)	NF-κB DNA binding activity in quadriceps of mdx mice (NF-κB [3]; listed as Zinc-13, 10 mg/kg)	NF-κB DNA binding activity in quadriceps of mdx mice (NF-κB [3]; listed as compound 12909780, 10 mg/kg)	degradation in the presence of serum [4]
O=C(CNc1ccc(Cl)cn1)NCCc1cccc(Br)c1 [SR12343, N-(3-bromophenethyl)-2-((5-chloropyridin-2-yl)amino)acetamide]	reducing the number and depth of the wrinkles	restores skin elasticity	improved skin hydration	lowered the expression of senescent markers such as p16	improved molecular markers of skin aging as well as the overall appearance of the skin									
Nc1ncccc1C(=O)OCC(=O)Nc1ccc(Cl)cc1F [NBDA-1, 2-((4-chloro-2-fluorophenyl)amino)-2-oxoethyl 2-aminonicotinate]						only high concentrations (50 and 100 μM) of the compound were able to inhibit TNF-α-induced NF-κB activation significantly	slightly downregulated NF-κB activation	able to reduce activation of NF-κB by TNF-alpha at low micromolar ranges	reduces the level of phospho-IκB	reduced phosphorylation of IkB	mild reduction	reduced NF-κB DNA binding activity in the skeletal muscle (quadricep)	inhibited NF-κB DNA binding activity in quadriceps	rapid degradation in the presence of serum

From patent publication US10758522B2, “Small molecule analogs of the nemo binding peptide” (THE SCRIPPS RESEARCH INSTITUTE, priority 2015, dated 2020)
